Experimental findings from ChEMBL document CHEMBL4396912 (Eur J Med Chem, 2019) are described below.

Molecules are shown by their SMILES. Activity calls are given as the source filed them. No cut-off for these calls is given here.

Experiment [1] addresses T1, Insulin-degrading enzyme (Homo sapiens, UniProt P14735).
T1 sequence (P14735 whole entry): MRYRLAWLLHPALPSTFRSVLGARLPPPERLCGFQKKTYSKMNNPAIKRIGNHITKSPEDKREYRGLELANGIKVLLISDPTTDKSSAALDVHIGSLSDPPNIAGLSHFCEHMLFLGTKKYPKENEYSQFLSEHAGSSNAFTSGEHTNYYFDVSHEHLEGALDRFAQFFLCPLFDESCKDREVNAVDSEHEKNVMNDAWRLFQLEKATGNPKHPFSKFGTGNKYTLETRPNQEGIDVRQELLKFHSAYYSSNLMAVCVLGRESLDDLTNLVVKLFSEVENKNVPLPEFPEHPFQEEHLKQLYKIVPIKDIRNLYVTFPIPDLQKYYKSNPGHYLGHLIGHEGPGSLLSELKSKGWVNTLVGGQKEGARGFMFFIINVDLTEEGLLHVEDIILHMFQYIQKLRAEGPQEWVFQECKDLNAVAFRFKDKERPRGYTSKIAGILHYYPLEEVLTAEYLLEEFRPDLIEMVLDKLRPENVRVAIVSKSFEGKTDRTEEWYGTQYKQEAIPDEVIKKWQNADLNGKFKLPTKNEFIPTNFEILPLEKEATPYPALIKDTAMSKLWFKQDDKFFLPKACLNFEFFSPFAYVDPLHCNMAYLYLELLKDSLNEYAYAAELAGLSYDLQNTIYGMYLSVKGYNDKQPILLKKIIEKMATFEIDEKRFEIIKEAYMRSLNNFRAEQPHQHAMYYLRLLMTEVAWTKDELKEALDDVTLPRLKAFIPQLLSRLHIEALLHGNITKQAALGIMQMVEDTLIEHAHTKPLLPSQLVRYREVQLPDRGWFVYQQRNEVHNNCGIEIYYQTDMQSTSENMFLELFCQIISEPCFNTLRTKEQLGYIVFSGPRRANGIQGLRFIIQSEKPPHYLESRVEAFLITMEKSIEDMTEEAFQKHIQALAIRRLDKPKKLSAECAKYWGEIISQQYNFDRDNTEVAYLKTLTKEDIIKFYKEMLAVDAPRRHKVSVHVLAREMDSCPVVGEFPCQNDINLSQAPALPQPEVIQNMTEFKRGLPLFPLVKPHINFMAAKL
As to the kind of experiment: Inhibition of human recombinant IDE expressed in Escherichia coli BL21 (DE3) cells using ATTO 655- Cys-Lys-Leu-Val-Phe-Phe-Ala-Glu-Asp-Trp as substrate preincubated for 10 mins followed by substrate addition and measured after 30 mins by spectrophotometric analysis.

In experiment [2] the target is Insulin-degrading enzyme (Homo sapiens) (UniProt P14735). The settings on record: HepG2, 30 uM.
Experiment [3] has the same target. Conditions: 2 mM.
Experiment [4] shares this target. As to the kind of experiment: Inhibition of human recombinant IDE expressed in Escherichia coli BL21 (DE3) cells using ATTO 655- Cys-Lys-Leu-Val-Phe-Phe-Ala-Glu-Asp-Trp as substrate at 100 uM preincubated for 10 mins followed by substrate addition and measured after 30 mins by spectrophotometric analysis relative to control.
For experiment [5] the target is unchanged. The experiment in a line: Irreversible inhibition of human recombinant IDE expressed in Escherichia coli BL21 (DE3) cells using ATTO 655- Cys-Lys-Leu-Val-Phe-Phe-Ala-Glu-Asp-Trp as substrate preincubated for 30 mins followed by 100 fold compound dilution by spectrophotometric analysis.
For experiment [6], the target named is Insulin-degrading enzyme (Homo sapiens, UniProt P14735, C110L/C171S/C178A/C257V/C414L/C573N/C590S/C789S/C812A/C819A/C904S/C966N/C974A). The experiment in a line: biochemical.
Sequence of Insulin-degrading enzyme (Homo sapiens, UniProt P14735, C110L/C171S/C178A/C257V/C414L/C573N/C590S/C789S/C812A/C819A/C904S/C966N/C974A) (P14735 whole entry C110L/C171S/C178A/C257V/C414L/C573N/C590S/C789S/C812A/C819A/C904S/C966N/C974A): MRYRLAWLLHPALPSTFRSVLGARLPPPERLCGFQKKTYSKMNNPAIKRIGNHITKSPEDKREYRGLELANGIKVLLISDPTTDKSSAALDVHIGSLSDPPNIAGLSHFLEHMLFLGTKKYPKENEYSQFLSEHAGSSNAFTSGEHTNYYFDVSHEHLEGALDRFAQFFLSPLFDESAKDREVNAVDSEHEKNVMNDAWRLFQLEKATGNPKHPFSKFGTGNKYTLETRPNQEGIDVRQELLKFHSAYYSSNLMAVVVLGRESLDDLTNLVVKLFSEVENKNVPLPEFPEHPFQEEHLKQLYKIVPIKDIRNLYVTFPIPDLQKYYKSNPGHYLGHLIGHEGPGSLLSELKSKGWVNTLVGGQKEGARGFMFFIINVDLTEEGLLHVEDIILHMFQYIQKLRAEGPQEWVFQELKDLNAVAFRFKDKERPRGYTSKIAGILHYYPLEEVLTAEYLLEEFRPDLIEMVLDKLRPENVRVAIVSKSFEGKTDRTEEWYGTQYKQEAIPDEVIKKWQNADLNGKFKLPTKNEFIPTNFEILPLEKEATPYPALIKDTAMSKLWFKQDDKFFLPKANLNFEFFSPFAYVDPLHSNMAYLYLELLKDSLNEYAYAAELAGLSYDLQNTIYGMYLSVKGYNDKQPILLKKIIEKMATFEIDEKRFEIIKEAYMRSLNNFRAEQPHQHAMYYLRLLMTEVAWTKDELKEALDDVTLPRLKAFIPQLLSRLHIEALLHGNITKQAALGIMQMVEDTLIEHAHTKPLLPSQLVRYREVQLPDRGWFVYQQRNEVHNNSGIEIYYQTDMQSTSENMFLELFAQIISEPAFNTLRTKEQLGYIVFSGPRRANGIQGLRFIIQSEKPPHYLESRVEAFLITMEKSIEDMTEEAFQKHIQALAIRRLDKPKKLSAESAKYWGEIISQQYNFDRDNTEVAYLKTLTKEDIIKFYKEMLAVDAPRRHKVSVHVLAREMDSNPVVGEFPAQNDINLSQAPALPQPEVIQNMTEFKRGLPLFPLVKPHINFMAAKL

With `O=c1c(O)c(-c2cc(O)c(O)c(O)c2)oc2cc(O)cc(O)c12` [MYRICETIN], the IC50 (commonly the concentration needed to halve the response being measured) at Insulin-degrading enzyme [1] amounted to 100 µM.
On to `O=c1c2ccccc2[se]n1-c1ccccc1`, for which the deltaT in experiment [2] was 1.3 °C.
As for `O=C(O)CN(CCN(CC(=O)O)CC(=O)O)CC(=O)O`, the inhibition (usually the percentage by which the read-out fell short of the control) in experiment [3] was found to be 100%.
Consider `COc1ccc2[nH]c([S+]([O-])Cc3ncc(C)c(OC)c3C)nc2n1` (configuration not stated), for which the inhibition in experiment [4] came to 35%.
On to `CCN1C(=O)C=CC1=O`, for which the inhibition entry in experiment [5] was “Active”.
Regarding `COc1ccnc(C[S+]([O-])c2nc3cc(OC(F)F)ccc3[nH]2)c1OC` (configuration not stated), the inhibition in experiment [4] worked out at 0%.
Take `Cc1c(OCC(F)(F)F)ccnc1C[S+]([O-])c1nc2ccccc2[nH]1` (configuration not stated): the inhibition in experiment [4] worked out at 38%.
Regarding `COCCCOc1ccnc(C[S+]([O-])c2nc3ccccc3[nH]2)c1C` (configuration not stated) [RABEPRAZOLE], the IC50 on Insulin-degrading enzyme [1] was determined as 11 µM. The inhibition in experiment [4] was found to be 98%.
In the case of `COc1ccc2[nH]c([S+]([O-])Cc3ncc(C)c(OC)c3C)nc2c1` (configuration not stated), the inhibition in experiment [4] was found to be 41%.
In experiment [2], `O=C(C[C@@H](Cc1ccc2ccccc2c1)n1cc(CNC(=O)c2ccc(F)cc2)nn1)NO` had a deltaT of 6.4 °C. The same molecule yielded an IC50 against Insulin-degrading enzyme [6] of 0.33 µM.
